Measurements from publication PMC11477289, “Low-Basicity 5-HT6 Receptor Ligands from the Group of Cyclic Arylguanidine Derivatives and Their Antiproliferative Activity Evaluation” (International Journal of Molecular Sciences, 2024).

Assays:
U-251 glioblastoma cells = experiment: Antiproliferative activity (MTS), U-251; details: Homo sapiens, U-251, 72 h, read-out: IC50 Values U-251
[1] = tested on: normal human astrocytes (NHAs); experiment: Activity on normal astrocytes (MTS), NHA; details: for IC50: Homo sapiens, Astrocyte, 72 h, read-out: IC50 Values NHA
[2] = tested on: LN-229 glioblastoma cell line; experiment: Antiproliferative activity (MTS), LN-229; details: Homo sapiens, LN-229, 72 h, read-out: IC50 Values LN-229
[3] = tested on: MCF7 breast carcinoma cell line; experiment: Antiproliferative activity (MTS), MCF7; details: Homo sapiens, MCF7, 72 h, read-out: IC50 Values MCF7
HEK293 = experiment: Cytotoxic activity on HEK293; assay type: cell-based; details: Homo sapiens
Text: Table 6 Extended receptor affinity study, with functional tests and cytotoxic activity of selected compounds on HEK293. | column: HEK293 / IC50 [µM]

U87MG glioblastoma cells = experiment: Antiproliferative activity (MTS), U87MG; details: Homo sapiens, U-87 MG, 72 h, read-out: IC50 Values U87MG
5-HT1A receptor = molecular target: T1, 5-HT1A receptor (Homo sapiens, UniProt P08908); experiment: [3H]-8-OHDPAT radioligand binding assay, 5-HT1A
T1 sequence (P08908 1-422): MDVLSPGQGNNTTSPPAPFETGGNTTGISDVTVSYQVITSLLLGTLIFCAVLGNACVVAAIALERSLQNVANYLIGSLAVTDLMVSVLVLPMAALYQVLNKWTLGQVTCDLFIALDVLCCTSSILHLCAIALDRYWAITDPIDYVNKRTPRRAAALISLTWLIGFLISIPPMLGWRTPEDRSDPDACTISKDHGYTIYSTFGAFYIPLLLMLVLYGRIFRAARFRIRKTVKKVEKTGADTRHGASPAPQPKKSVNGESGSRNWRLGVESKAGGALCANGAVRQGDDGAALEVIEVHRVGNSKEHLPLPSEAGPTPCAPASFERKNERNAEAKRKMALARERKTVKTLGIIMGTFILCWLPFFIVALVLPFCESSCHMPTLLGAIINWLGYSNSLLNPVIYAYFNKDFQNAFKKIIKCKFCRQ

human 5-HT6 [4] = molecular target: T2, human 5-HT6 (Homo sapiens, UniProt P50406); experiment: Functional evaluation, cAMP (LANCE Ultra) in HEK293 cells; assay type: cell-based; details: for Kb: antagonist mode, cAMP induced by 5-CT 1000 nM
T2 construct: expressed in transfected cells
Description: The supernatant was aspirated, and the cell pellet was resuspended in a stimulation buffer (1 × HBSS, 5 mM HEPES, 0.5 mM IBMX, 0.1% BSA).
The functional properties of compounds were evaluated using the LANCE Ultra cAMP detection kit (PerkinElmer). […] To investigate the antagonist activity, dopamine for D2R was added at a concentration of 10 nM, and for cell lines with 5-HT7R, 5-HT1AR, or 5-HT6R, 5-CT concentrations were adjusted, being, respectively, 10, 100, and 1000 nM, according to the receptor subtype.
For the quantification of cAMP levels, cells (5 µL) were incubated with a 5 µL mixture of necessary compounds for 30 min at room temperature in a 384-well white opaque microtiter plate (PerkinElmer). After incubation, the reaction was stopped, and cells were lysed by the addition of a 10 µL working solution (5 µL Eu-cAMP and 5 µL ULight-anti-cAMP). The assay plate was incubated for 1 h at room temperature. The time-resolved fluorescence resonance energy transfer (TR-FRET) signal was detected by an Infinite M1000 Pro (Tecan, Männedorf, Switzerland) using instrument settings from the LANCE Ultra cAMP detection kit manual.

[5] = tested on: 1321N1 astrocytoma cell line; experiment: Antiproliferative activity (MTS), 1321N1; details: Homo sapiens, 1321-N1, 72 h, read-out: IC50 Values 1321N1
human 5-HT6 [6] = molecular target: T2, human 5-HT6; experiment: [3H]-LSD radioligand binding assay, 5-HT6R; details: HEK293 expressing human 5-HT6R, read-out: 5-HT6 Ki
Description: Next, the ligands’ affinity for the 5-HT6 receptors was evaluated in the [^3H]-LSD radioligand binding assay. Experiments were performed in a stable HEK293 cell line expressing the human 5-HT6R.
The pellets were stored at −80 °C.

5-HT7b receptor = 5-HT7b receptor (Homo sapiens, UniProt P34969); experiment: [3H]-5-CT radioligand binding assay, 5-HT7
[7] = tested on: AsPC-1 pancreas adenocarcinoma cell line; experiment: Antiproliferative activity (MTS), AsPC-1; details: Homo sapiens, ASPC1, 72 h, read-out: IC50 Values AsPC-1
[8] = Affinity to phospholipids, IAM column (CHI IAM); assay type: physicochemical; details: IAM.PC.DD2 column, pH 7.4
Description: (§1) We began with an assay for lipophilicity, affinity for phospholipids (for 40 compounds), and drug binding to human serum albumin (HSA) (for 20 compounds), using chromatographic protocols developed by Valko [46] and implemented in our laboratory [47]. […] These methods allowed the determination of chromatographic hydrophobicity indices (CHIs), binding to HSA (%HSA), and phospholipids (CHIIAM) using a single-gradient elution experiment and comparison to reference substances.

D2L receptor = D2L receptor (Homo sapiens, UniProt P14416); experiment: [3H]-raclopride radioligand binding assay, D2
[9] = Chromatographic hydrophobicity index on C18 column (lipophilicity); assay type: physicochemical
Description: as §1

[10] = molecular target: human serum albumin (HSA) (Homo sapiens, UniProt P02768); experiment: Binding to HSA, Chiralpak HSA column; details: Chiralpak HSA column
Text: We began with an assay for lipophilicity, affinity for phospholipids (for 40 compounds), and drug binding to human serum albumin (HSA) (for 20 compounds), using chromatographic protocols developed by Valko [46] and implemented in our laboratory. Compounds with the highest affinity for 5-HT6R and those showing the most promising ADMET parameters, including the possibility of BBB penetration, DDI, and lipophilicity, determined in silico in SwissADME [45], were selected for testing. These methods allowed the determination of chromatographic hydrophobicity indices (CHIs), binding to HSA (%HSA), and phospholipids (CHIIAM) using a single-gradient elution experiment and comparison to reference substances.
The use of columns modified with plasma proteins, such as HSA, also allows for the estimation of binding to HSA, which is the most dominant plasma protein (PP). Binding to PP affects drug pharmacokinetics, such as distribution, half-life, and clearance.
The mobile phase flow rate was 1.5 mL/min, and the column was maintained at 30 °C. • Chiralpak® HSA (50 mm × 4 mm; 5 µm with safety guard column; Daicel Chiral Technologies, West Chester, PA, USA), mobile phase A: 50 mM ammonium acetate, mobile phase B: HPLC-grade isopropanol (VWR International, Leuven, Belgium). For the first 15 min, the linear gradient from 0 to 20% isopropanol was applied and then held at 20% isopropanol for 12 min. In the last 5 min of the sequence, the mobile phase mixture received a pure ammonium acetate solution. The column temperature was held at 30 °C, whereas the flow rate was 0.9 mL/min.
The reference substances for the calibration of HSA, C18, and IAM columns were purchased, respectively: acetanilide, butyrophenone, diclofenac, and octanonophenone (Alfa Aesar, Haverhill, MA, USA); acetophenone, benzimidazole, colchicine, indole, indometacin, paracetamol, and theophylline (Sigma-Aldrich, Steinheim, Germany); nicardipine and nizatidine (Cayman Chemical, Ann Arbor, MI, USA); carbamazepine, heptanophenone, hexanophenone, propiophenone, and valerophenone (Acros Organic, Pittsburg, PA, USA). Before chromatographic experiments, solutes were dissolved in dimethyl sulfoxide (Avantor Performance Materials Poland S.A., Gliwice, Poland) to obtain a 200 µg/mL concentration. The detection was performed in the UV region at the wavelength from 190 nm to 300 nm. The injected volume was 5 μL, and each compound was analyzed in triplicate.

[11] = Metabolic stability in mouse liver microsomes (MLMs); assay type: in vitro ADME; details: mouse, mouse liver microsomes, 120 min
Description: The metabolic stability of PR 68, PR 73, and PR 76 were determined in mouse liver microsomes (MLMs).
The metabolic stability of PR 68 was estimated with mouse liver microsomes (MLMs) (Sigma-Aldrich, St. Louis, MO, USA). […] Cold methanol was then added to the reaction mixture to quench the reaction. The precipitated MLMs were centrifuged, and the supernatant was analyzed by LC/MS with a Waters ACQUITY™ TQD system with a TQ detector (Waters, Milford, USA).
(1 picture or pasted object on this page, not shown here)

PAMPA permeability test = assay type: in vitro ADME; details: PBS pH 7.4, 5 h, room temperature
Description: This test allows the determination of the compound’s passive diffusion through biological membranes.
Precoated PAMPA Plate System Gentest was obtained from Corning (Tewksbury, MA, USA). Test compounds and caffeine solutions (200 µM) were prepared in a PBS buffer (pH = 7.4) and then added to the PAMPA plate. The plate was incubated at room temperature for 5 h without agitation. Then, 150 µL was aspirated from both acceptor (A) and donor (D) wells and then diluted with a 150 µL internal standard (IS) solution. The concentrations of the tested compounds in wells A and D were estimated using an LC/MS Waters ACQUITY™ TQD system with a TQ detector (Waters, Milford, CT, USA). The values of Pe were estimated according to the exact formulas provided by Corning and previously described in the literature.
4. Absorption – PAMPA permeability test
*Permeability coefficient. Compound is permeable if Pe≥1.5×10-6 cm/s
**CFN = caffeine, well-permeable control
UPLC of Caffeine solution in PBS (pH=7.4) after 5h of incubation: acceptor well
(above), donor well (below). IS – internal standard.
UPLC of PR 68 solution in PBS (pH=7.4) after 5h of incubation: acceptor well (above),
donor well (below). IS – internal standard. […]

T2 sequence (P50406 whole entry): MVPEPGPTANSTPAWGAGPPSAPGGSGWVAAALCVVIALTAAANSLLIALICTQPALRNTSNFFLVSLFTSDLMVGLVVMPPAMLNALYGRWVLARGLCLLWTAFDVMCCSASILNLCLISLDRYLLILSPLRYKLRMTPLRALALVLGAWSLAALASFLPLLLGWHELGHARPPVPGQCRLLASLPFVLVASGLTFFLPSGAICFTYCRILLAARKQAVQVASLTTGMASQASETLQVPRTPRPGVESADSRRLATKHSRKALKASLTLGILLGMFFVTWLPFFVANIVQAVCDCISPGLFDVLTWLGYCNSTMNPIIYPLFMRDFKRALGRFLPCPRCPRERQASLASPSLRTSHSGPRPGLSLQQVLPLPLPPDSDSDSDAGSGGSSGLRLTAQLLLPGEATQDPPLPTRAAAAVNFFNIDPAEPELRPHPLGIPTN
D2L receptor, sequence (P14416 whole entry): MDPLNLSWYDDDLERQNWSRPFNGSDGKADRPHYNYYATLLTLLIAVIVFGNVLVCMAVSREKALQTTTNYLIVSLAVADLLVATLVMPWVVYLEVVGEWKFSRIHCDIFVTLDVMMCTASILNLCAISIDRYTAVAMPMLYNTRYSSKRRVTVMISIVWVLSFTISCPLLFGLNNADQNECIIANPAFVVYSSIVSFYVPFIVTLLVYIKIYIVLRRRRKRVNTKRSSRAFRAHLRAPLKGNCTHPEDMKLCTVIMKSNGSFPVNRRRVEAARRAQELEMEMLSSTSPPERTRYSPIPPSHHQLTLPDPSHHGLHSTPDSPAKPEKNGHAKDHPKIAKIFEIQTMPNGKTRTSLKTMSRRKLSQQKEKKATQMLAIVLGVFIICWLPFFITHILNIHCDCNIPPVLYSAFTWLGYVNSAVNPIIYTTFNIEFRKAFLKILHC
human serum albumin (HSA), sequence (P02768 25-609): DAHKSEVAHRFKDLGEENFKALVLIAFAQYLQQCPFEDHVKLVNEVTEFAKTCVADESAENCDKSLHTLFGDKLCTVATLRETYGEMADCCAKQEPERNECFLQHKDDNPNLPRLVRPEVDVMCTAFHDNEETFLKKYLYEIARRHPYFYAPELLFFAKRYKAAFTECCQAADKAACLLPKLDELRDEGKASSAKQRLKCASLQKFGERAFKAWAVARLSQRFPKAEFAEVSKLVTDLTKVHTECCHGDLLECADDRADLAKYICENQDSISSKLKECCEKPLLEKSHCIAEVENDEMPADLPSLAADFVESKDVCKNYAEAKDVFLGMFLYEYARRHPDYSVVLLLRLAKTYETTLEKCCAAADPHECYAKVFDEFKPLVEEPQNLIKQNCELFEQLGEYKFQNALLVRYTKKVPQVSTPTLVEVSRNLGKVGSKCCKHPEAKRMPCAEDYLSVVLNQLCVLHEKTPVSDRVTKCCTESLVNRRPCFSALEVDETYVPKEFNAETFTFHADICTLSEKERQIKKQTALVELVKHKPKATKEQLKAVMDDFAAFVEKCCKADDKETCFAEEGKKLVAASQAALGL
5-HT7b receptor, sequence (P34969 1-432 limits assumed): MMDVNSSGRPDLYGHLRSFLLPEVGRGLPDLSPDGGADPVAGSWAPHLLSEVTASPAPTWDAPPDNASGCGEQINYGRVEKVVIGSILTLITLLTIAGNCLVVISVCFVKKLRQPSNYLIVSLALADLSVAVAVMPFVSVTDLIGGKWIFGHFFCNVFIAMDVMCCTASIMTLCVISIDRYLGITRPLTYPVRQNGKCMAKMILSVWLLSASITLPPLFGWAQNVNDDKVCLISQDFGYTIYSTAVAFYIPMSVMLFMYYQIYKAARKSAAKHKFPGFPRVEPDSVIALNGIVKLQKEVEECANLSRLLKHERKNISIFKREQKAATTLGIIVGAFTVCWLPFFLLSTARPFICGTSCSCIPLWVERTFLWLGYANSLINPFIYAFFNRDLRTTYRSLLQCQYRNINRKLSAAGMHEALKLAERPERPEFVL

| Compound | IC50 (U-251 glioblastoma cells) [µM] | IC50 [2] [µM] | IC50 [3] [µM] | IC50 (U87MG glioblastoma cells) [µM] | Ki (5-HT1A receptor) [µM] | IC50 [5] [µM] | Ki (human 5-HT6 [6]) [µM] | Ki (5-HT7b receptor) [µM] | IC50 [7] [µM] | melting point [°C] | Ki (D2L receptor) [µM] | also measured |
| --- | --- | --- | --- | --- | --- | --- | --- | --- | --- | --- | --- | --- |
| CN(C)C/C=C/C(=O)Nc1cc2c(Nc3ccc(F)c(Cl)c3)ncnc2cc1O[C@H]1CCOC1 [Afatinib, reference compound] | 27 | 9.8 | 25.9 | – | – | – | – | – | – | – | – | IC50 [1]: 7.5 µM |
| O=S(=O)(NC1=Nc2c(Cl)cccc2CN1)c1cccc2ccccc12 [PR 49, N -(8-chloro-3,4-dihydroquinazolin-2-yl)naphthalene-1-sulfonamide] | > 25 | > 25 | > 25 | > 25 | 207 | > 25 | 0.077 ± 0.018 | 142 | > 25 | 250 to 256 | – | IC50 (HEK293): 38.8 µM; Kb (human 5-HT6 [4]): 0.081 µM |
| CN(C)c1ccc2c(c1)CNC(NS(=O)(=O)c1cccc3ccccc13)=N2 [PR 64, N -[6-(dimethylamino)-3,4-dihydroquinazolin-2-yl]naphthalene-1-sulfonamide] | 7.7 ± 0.8 | > 25 | 9.7 ± 1.7 | > 25 | – | > 25 | 0.851 ± 0.192 | – | > 25 | 216 to 222 | – | IC50 [1]: 15.1 ± 2.1 µM; selectivity index ([1]; activity on NHA compared to U-251 cells): 1.96 |
| CC1NC(NS(=O)(=O)c2cccc3ccccc23)=Nc2c(Cl)cccc21 (centres unmarked) [PR 71, N -(8-chloro-4-methyl-3,4-dihydroquinazolin-2-yl)naphthalene-1-sulfonamide] | > 25 | > 25 | > 25 | > 25 | 134 | > 25 | 0.061 ± 0.014 | 37.5 | > 25 | 215 to 219 | 142 | Kb (human 5-HT6 [4]): 0.035 µM; CHI IAM [8]: 44.8; CHI C18 pH 2.6 [9]: 102.2; CHI C18 pH 7.4 [9]: 100.7; CHI C18 pH 10.5 [9]: 103.8; %HSA [10]: 97.5%; logKHSA [10]: 1.4 |
| CC1c2ccccc2N=C(NS(=O)(=O)c2cccc3ccccc23)N1C (centres unmarked) [PR 76, N -(3,4-dimethyl-3,4-dihydroquinazolin-2-yl)naphthalene-1-sulfonamide] | > 25 | > 25 | > 25 | > 25 | 11 | > 25 | 0.103 ± 0.025 | 35.6 | > 25 | 215 to 217 | 174 | EC50 (human 5-HT6 [4]; agonist mode, cAMP): 0.199 µM; function at 5-HT6R (human 5-HT6 [4]; cAMP): agonist; remaining at 2 h, 50 µM [11]: 87.4% |
| CC1OC(NS(=O)(=O)c2cccc3ccccc23)=Nc2ccccc21 (centres unmarked) [PR 77, N -(4-methyl-4H-3,1-benzoxazin-2-yl)naphthalene-1-sulfonamide] | > 25 | > 25 | > 25 | > 25 | 7.54 | > 25 | 0.373 ± 0.092 | 56.7 | > 25 | 229 to 233 | 222 | CHI IAM [8]: 40.8; CHI C18 pH 2.6 [9]: 102.5; CHI C18 pH 7.4 [9]: 99.9; CHI C18 pH 10.5 [9]: 103.2; %HSA [10]: 95.9%; logKHSA [10]: 1.3 |
| Cn1c(=O)c2c(ncn2C)n(C)c1=O [caffeine, reference compound] | – | – | – | – | – | – | – | – | – | – | – | Papp at 5 h, 200 µM (PAMPA permeability test; PAMPA, read-out: PAMPA Pe): 8.23 ×10⁻⁶ cm/s; PAMPA Pe (PAMPA permeability test): 8.23 10^−6 cm/s |
